Results: patent publication EP2396329B1, “COMPOUNDS FOR THE TREATMENT OF HEPATITIS C” (priority 2009, dated 2010)
Like-named read-outs stand apart in the source and are kept apart here.

Assays:
[1] = target: T1, HCV NS5B (Hepatitis C virus genotype 1b, UniProt Q9WMX2); experiment: HCV NS5B RdRp enzyme assay (standard or modified); format: biochemical
T1 construct: The protein was expressed with an 18 amino acid C-terminal truncation to enhance the solubility; made in house; host or cells: E. coli BL21(DE3)
T1 sequence (Q9WMX2 2420-2992): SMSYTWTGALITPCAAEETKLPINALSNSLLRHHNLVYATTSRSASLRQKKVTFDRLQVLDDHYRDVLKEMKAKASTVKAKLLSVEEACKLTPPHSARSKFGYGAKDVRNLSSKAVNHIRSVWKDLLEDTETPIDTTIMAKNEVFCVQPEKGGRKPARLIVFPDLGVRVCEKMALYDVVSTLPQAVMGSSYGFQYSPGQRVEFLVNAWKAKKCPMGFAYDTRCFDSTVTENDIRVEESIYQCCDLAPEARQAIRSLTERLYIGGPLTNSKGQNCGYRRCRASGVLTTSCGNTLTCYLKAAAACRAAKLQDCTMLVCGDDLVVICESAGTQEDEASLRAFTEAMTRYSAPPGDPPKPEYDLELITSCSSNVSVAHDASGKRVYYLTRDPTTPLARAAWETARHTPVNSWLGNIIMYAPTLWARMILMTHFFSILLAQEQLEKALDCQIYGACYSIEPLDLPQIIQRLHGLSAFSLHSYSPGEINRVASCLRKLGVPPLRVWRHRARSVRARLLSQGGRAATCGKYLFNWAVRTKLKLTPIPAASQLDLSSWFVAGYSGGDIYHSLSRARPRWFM
Procedure: HCV NS5B RdRp cloning, expression, and purification. The cDNA encoding the NS5B protein of HCV, genotype 1b, was cloned into the pET21a expression vector. The protein was expressed with an 18 amino acid C-terminal truncation to enhance the solubility. The E. coli competent cell line BL21(DE3) was used for expression of the protein. Cultures were grown at 37 °C for ~ 4 hours until the cultures reached an optical density of 2.0 at 600 nm. The cultures were cooled to 20 °C and induced with I mM IPTG. Fresh ampicillin was added to a final concentration of 50 µg/ml and the cells were grown overnight at 20 °C.
Cell pellets (3L) were lysed for purification to yield 15-24 mgs of purified NS5B. The lysis buffer consisted of 20 mM Tris-HCl, pH 7.4, 500 mM NaCl, 0.5% triton X-100, 1 mM DTT, 1mM EDTA, 20% glycerol, 0.5 mg/ml lysozyme, 10 mM MgCl2, 15 ug/ml deoxyribonuclease I, and Complete TM protease inhibitor tablets (Roche). After addition of the lysis buffer, frozen cell pellets were resuspended using a tissue homogenizer. To reduce the viscosity of the sample, aliquots of the lysate were sonicated on ice using a microtip attached to a Branson sonicator. The sonicated lysate was centrifuged at 100,000 x g for 1hr at 4 °C and filtered through a 0.2 µm filter unit (Corning).
The protein was purified using three sequential chromatography steps: Heparin sepharose CL-6B, polyU sepharose 4B, and Hitrap SP sepharose (Pharmacia). The chromatography buffers were identical to the lysis buffer but contained no lysozyme, deoxyribonuclease I, MgCl2 or protease inhibitor and the NaCl concentration of the buffer was adjusted according to the requirements for charging the protein onto the column. Each column was eluted with a NaCl gradient which varied in length from 5-50 column volumes depending on the column type. After the final chromatography step, the resulting purity of the enzyme is >90% based on SDS-PAGE analysis. The enzyme was aliquoted and stored at -80 °C.
Standard HCV NS5B RdRp enzyme assay. HCV RdRp genotype 1b assays were run in a final volume of 60 µl in 96 well plates (Costar 3912). The assay buffer is composed of 20 mM Hepes, pH 7.5, 2.5 mM KCI, 2.5 mM MgCl2, 1 mM DTT, 1.6 U RNAse inhibitor (Promega N2515), 0.1 mg/ml BSA (Promega R3961), and 2 % glycerol. All compounds were serially diluted (3-fold) in DMSO and diluted further in water such that the final concentration of DMSO in the assay was 2%. HCV RdRp genotype Ib enzyme was used at a final concentration of 28 nM. A polyA template was used at.6 nM, and a biotinylated oligo-dT12 primer was used at 180 nM final concentration. Template was obtained commercially (Amersham 27-4110). Biotinylated primer was prepared by Sigma Genosys. 3H-UTP was used at 0.6 µCi (0.29 µM total UTP). Reactions were initiated by the addition of enzyme, incubated at 30 °C for 60 min, and stopped by adding 25 µl of 50 mM EDTA containing SPA beads (4 µg/µl, Amersham RPNQ 0007). Plates were read on a Packard Top Count NXT after > 1hr incubation at room temperature.
Modified HCV NS5B RdRp enzyme assay. A modified enzyme assay was performed essentially as described for the standard enzyme assay except for the following: The biotinylated oligo dT12 primer was precaptured on streptavidin-coated SPA beads by mixing primer and beads in assay buffer and incubating at room temperature for one hour. Unbound primer was removed after centrifugation. The primer-bound beads were resuspended in 20 mM Hepes buffer, pH 7.5 and used in the assay at final concentrations of 20 nM primer and 0.67 µg/µl beads. Order of addition in the assay: enzyme (14 nM) was added to diluted compound followed by the addition of a mixture of template (0.2 nM), 3H-UTP (0.6 µCi, 0.29 µM), and primer-bound beads, to initiate the reaction; concentrations given are final. Reactions were allowed to proceed for 4 hours at 30° C.
IC50 values for compounds were determined using seven different [I]. […]

[2] = system: HCV replicon; experiment: HCV replicon assay (FRET or luciferase readout); format: cell-based; conditions: Hepatitis C virus
Description: FRET Assay Preparation. To perform the HCV FRET screening assay, 96-well cell culture plates were used. The FRET peptide (Anaspec, Inc.) (Taliani et al., Anal. Biochem. 1996, 240, 60-67) contains a fluorescence donor, EDANS, near one end of the peptide and an acceptor, DABCYL, near the other end. The fluorescence of the peptide is quenched by […] resonance energy transfer (RET) between the donor and the acceptor, but as the NS3 protease cleaves the peptide the products are released from RET quenching and the fluorescence of the donor becomes apparent. The assay reagent was made as follows: 5X cell Luciferase cell culture lysis reagent from Promega (#E153A) diluted to 1X with dH2O, NaCl added to 150 mM final, the FRET peptide diluted to 20 µM final from a 2 mM stock.
To prepare plates, HCV replicon cells, with or without a Renilla luciferase reporter gene, were trypsinized and placed into each well of a 96-well plate with titrated test compounds added in columns 3 through 12; columns 1 and 2 contained a control compound (HCV protease inhibitor), and the bottom row contained cells without compound. The plates were then placed in a CO2 incubator at 37 °C.
Assays. Subsequent to addition of the test compounds described above (FRET Assay Preparation), at various times the plate was removed and Alamar blue solution (Trek Diagnostics, #00-100) was added per well as a measure of cellular toxicity. After reading in a Cytoflour 4000 instrument (PE Biosystems), plates were rinsed with PBS and then used for FRET assay by the addition of 30 ul of the FRET peptide assay reagent described above (FRET Assay Preparation) per well. The plate was then placed into the Cytoflour 4000 instrument which had been set to 340 excite/490 emission, automatic mode for 20 cycles and the plate read in a kinetic mode. Typically, the signal to noise using an endpoint analysis after the reads was at least three-fold. Alternatively, after Alamar blue reading, plates were rinsed with PBS, 50 ul of DMEM (high glucose) without phenol red was added and plates were then used for luciferase assay using the Promega Dual-Glo Luciferase Assay System.
Compound analysis was determined by quantification of the relative HCV replicon inhibition and the relative cytotoxicity values. To calculate cytoxicity values, the average Alamar Blue fluorescence signals from the control wells were set as 100% non-toxic. The individual signals in each of the compound test wells were then divided by the average control signal and multiplied by 100% to determine […]. To calculate the HCV replicon inhibition values, an average background value was obtained from the two wells containing the highest amount of HCV protease inhibitor at the end of the assay period. These numbers were similar to those obtained from naïve Huh-7 cells.
The background numbers were then subtracted from the average signal obtained from the control wells and this number was used as 100% activity. The individual signals in each of the compound test wells were then divided by the averaged control values after background subtraction and multiplied by 100% to determine percent activity. EC50 values for a protease inhibitor titration were calculated as the concentration which caused a 50% reduction in FRET or luciferase activity. The two numbers generated for the compound plate, percent cytoxicity and percent activity were used to determine compounds of interest for further analysis.

[3] = HCV NS5B RdRp enzyme, genotype 1b, read-out: IC50
[4] = HCV replicon cells, FRET or luciferase activity, read-out: EC50

Row | SMILES | IC50 [1] [nM] | EC50 [2] [nM] | IC50 [1, 3] [nM] | EC50 [2, 4] [nM]
1 | COc1ccc2c(c1)C=C(c1c(C(=O)N3CC4CCC(C3)O4)cnn1CC(F)(F)F)Cn1c-2c(C2CCCCC2)c2ccc(C(=O)NS(=O)(=O)C(C)C)cc21 | 1 to 500 | 1 to 500 | – | –
2 | COc1ccc2c(c1)C=C(c1c(C(=O)N3C[C@@H](C)N(C)[C@@H](C)C3)ncn1C(C)C)Cn1c-2c(C2CCCCC2)c2ccc(C(=O)NS(=O)(=O)C(C)C)cc21 | – | – | 1 to 500 | 1 to 500
3 | CCn1nc(C)c(C2=Cc3cc(OC)ccc3-c3c(C4CCCCC4)c4ccc(C(=O)NS(=O)(=O)C(C)C)cc4n3C2)c1C(=O)N1C[C@@H](C)O[C@H](C)C1 | – | – | 1 to 500 | 1 to 500
4 | COc1ccc2c(c1)C=C(c1ncn(C(C)C)c1C(=O)N1CCOCC1)Cn1c-2c(C2CCCCC2)c2ccc(C(=O)NS(=O)(=O)N(C)C)cc21 | – | – | 1 to 500 | 1 to 500
5 | CCn1nc(C)c(C(=O)N2C[C@@H](C)O[C@@H](C)C2)c1C1=Cc2cc(OC)ccc2-c2c(C3CCCCC3)c3ccc(C(=O)NS(=O)(=O)N(C)C)cc3n2C1 | – | – | 1 to 500 | 1 to 500
6 | CCn1nc(C)c(C2=Cc3cc(OC)ccc3-c3c(C4CCCCC4)c4ccc(C(=O)NS(=O)(=O)C(C)C)cc4n3C2)c1C(=O)N1CCN(C)CC1 | – | – | 1 to 500 | 1 to 500
7 | COc1ccc2c(c1)C=C(c1c(C(=O)N3CC4CC3CO4)cnn1CC(F)(F)F)Cn1c-2c(C2CCCCC2)c2ccc(C(=O)NS(=O)(=O)C(C)C)cc21 (centres unmarked) | – | 1 to 500 | 1 to 500 | –
8 | COc1ccc2c(c1)C=C(c1nn(C(C)C)c(C)c1C(=O)N1C[C@@H](C)N(C)[C@@H](C)C1)Cn1c-2c(C2CCCCC2)c2ccc(C(=O)NS(=O)(=O)C(C)C)cc21 | – | – | 1 to 500 | 1 to 500
9 | COc1ccc2c(c1)C=C(c1c(C(=O)N3CCOCC3)nnn1C(C)C)Cn1c-2c(C2CCCCC2)c2ccc(C(=O)NS(=O)(=O)N(C)C)cc21 | – | – | 1 to 500 | 1 to 500
10 | CCn1ncc(C(=O)N2C[C@@H](C)O[C@@H](C)C2)c1C1=Cc2cc(OC)ccc2-c2c(C3CCCCC3)c3ccc(C(=O)NS(=O)(=O)C(C)C)cc3n2C1 | – | – | 1 to 500 | 1 to 500
11 | COc1ccc2c(c1)C=C(c1c(C(=O)N3C4CCC3CN(C)C4)ncn1C(C)C)Cn1c-2c(C2CCCCC2)c2ccc(C(=O)NS(=O)(=O)C(C)C)cc21 | 1 to 500 | 1 to 500 | – | –
12 | COc1ccc2c(c1)C=C(c1c(C(=O)N3CCN(C)CC3)cnn1C(C)C)Cn1c-2c(C2CCCCC2)c2ccc(C(=O)NS(=O)(=O)C(C)C)cc21 | – | – | 1 to 500 | 1 to 500
13 | COc1ccc2c(c1)C=C(c1c(C(=O)N3CCOCC3)ncn1C(C)C)Cn1c-2c(C2CCCCC2)c2ccc(C(=O)NS(=O)(=O)C(C)C)cc21 | – | – | 1 to 500 | 1 to 500
